Measurements: ChEMBL document CHEMBL1201862, “PubChem BioAssay data set” (2004)
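Assay format: 96-well plates, 48-hour exposure. The concentration for 50% growth inhibition is given as GI50.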 Activity calls are given as the source filed them. Rule as the data show it: active = GI50 up to about 1.1 µM and inactive = higher.

Assays:
Assay in all cases: NCI anticancer screen, dose series, 48 h
LOX IMVI = tested on: LOX IMVI
SF-295 = tested on: SF-295
DMS-114 = tested on: DMS-114
UO-31 = tested on: UO-31
HCC 2998 = tested on: HCC 2998
CAKI-1 = tested on: CAKI-1
OVCAR-8 = tested on: OVCAR-8
SK-OV-3 = tested on: SK-OV-3
KM-20L2 = tested on: KM-20L2
SF-539 = tested on: SF-539
K562 = tested on: K562
SK-MEL-28 = tested on: SK-MEL-28
MOLT-4 = tested on: MOLT-4
SNB-75 = tested on: SNB-75
KM12 = tested on: KM12
COLO 205 = tested on: COLO 205
ACHN = tested on: ACHN
HOP-92 = tested on: HOP-92
HCT-116 = tested on: HCT-116
SR = tested on: SR

| Structure (SMILES) | GI50 (LOX IMVI) | GI50 (SF-295) | GI50 (DMS-114) | GI50 (UO-31) | GI50 (HCC 2998) | GI50 (CAKI-1) | GI50 (OVCAR-8) | GI50 (SK-OV-3) | GI50 (KM-20L2) | GI50 (SF-539) | GI50 (K562) | GI50 (SK-MEL-28) | GI50 (MOLT-4) | GI50 (SNB-75) | GI50 (KM12) | GI50 (COLO 205) | GI50 (ACHN) | GI50 (HOP-92) | GI50 (HCT-116) | GI50 (SR) |
| --- | --- | --- | --- | --- | --- | --- | --- | --- | --- | --- | --- | --- | --- | --- | --- | --- | --- | --- | --- | --- |
| c1ccc2cc3n[se]nc3cc2c1 | > 100 µM (inactive) | 39.4 µM (inactive) | > 100 µM (inactive) | 55.8 µM (inactive) | 38.9 µM (inactive) | > 100 µM (inactive) | > 100 µM (inactive) | > 100 µM (inactive) | > 100 µM (inactive) | 37.6 µM (inactive) | > 100 µM (inactive) | > 100 µM (inactive) | 75.5 µM (inactive) | 56.9 µM (inactive) | > 100 µM (inactive) | > 100 µM (inactive) | > 100 µM (inactive) | – | – | – |
| C=CCP(=O)(CC=C)C(Cl)Cl | > 100 µM (inactive) | > 100 µM (inactive) | – | > 100 µM (inactive) | > 100 µM (inactive) | > 100 µM (inactive) | > 100 µM (inactive) | > 100 µM (inactive) | – | – | > 100 µM (inactive) | > 100 µM (inactive) | > 100 µM (inactive) | > 100 µM (inactive) | – | > 100 µM (inactive) | > 100 µM (inactive) | > 100 µM (inactive) | > 100 µM (inactive) | > 100 µM (inactive) |
| C=C(C(=O)C(=O)Oc1ccc(Cl)cc1)C(=O)c1ccc(C)cc1 | < 0.01 µM (active) | 76 µM (inactive) | 30.9 µM (inactive) | 40.2 µM (inactive) | 26.5 µM (inactive) | 94.4 µM (inactive) | 55.3 µM (inactive) | > 100 µM (inactive) | 59.7 µM (inactive) | 18.4 µM (inactive) | 81.5 µM (inactive) | 71.1 µM (inactive) | 58.3 µM (inactive) | 39.2 µM (inactive) | 21.5 µM (inactive) | > 100 µM (inactive) | 91.4 µM (inactive) | > 100 µM (inactive) | 16.7 µM (inactive) | 13.1 µM (inactive) |
| COc1nc2ccc(CNc3ccc(C(=O)NC(CCC(=O)O)C(=O)O)cc3)cc2nc1OC (stereo unspecified) | 32.8 µM (inactive) | > 100 µM (inactive) | – | > 100 µM (inactive) | > 100 µM (inactive) | – | > 100 µM (inactive) | > 100 µM (inactive) | – | – | 25.3 µM (inactive) | > 100 µM (inactive) | 18.8 µM (inactive) | > 100 µM (inactive) | > 100 µM (inactive) | > 100 µM (inactive) | > 100 µM (inactive) | – | – | > 100 µM (inactive) |
| COc1ccc2c(c1)CC1Cc3ccccc3CCN1C2 (stereo unspecified) | 20 µM (inactive) | 29.2 µM (inactive) | – | 37.2 µM (inactive) | 35.2 µM (inactive) | 20.3 µM (inactive) | > 100 µM (inactive) | 20.5 µM (inactive) | – | 31.1 µM (inactive) | 56.2 µM (inactive) | > 100 µM (inactive) | 80.5 µM (inactive) | > 100 µM (inactive) | 21.6 µM (inactive) | 35.5 µM (inactive) | 64 µM (inactive) | 27.7 µM (inactive) | 40.1 µM (inactive) | 65.8 µM (inactive) |
| O=C1OC2(OC2c2ccc(Cl)cc2)c2ccccc21 (stereo unspecified) | 17.8 µM (inactive) | 85.7 µM (inactive) | 64.7 µM (inactive) | > 100 µM (inactive) | > 100 µM (inactive) | > 100 µM (inactive) | > 100 µM (inactive) | > 100 µM (inactive) | > 100 µM (inactive) | > 100 µM (inactive) | 53.1 µM (inactive) | > 100 µM (inactive) | > 100 µM (inactive) | 48.1 µM (inactive) | 71.1 µM (inactive) | > 100 µM (inactive) | 94.2 µM (inactive) | > 100 µM (inactive) | > 100 µM (inactive) | > 100 µM (inactive) |
| C/C(=C1/N=C(c2cc([N+](=O)[O-])ccc2Cl)N(c2ccc(Br)cc2)C1=O)c1cc2ccccc2oc1=O | 17.3 µM (inactive) | 80.5 µM (inactive) | 10.1 µM (inactive) | 23.7 µM (inactive) | 24 µM (inactive) | 12.9 µM (inactive) | 81.8 µM (inactive) | 90.4 µM (inactive) | 17.6 µM (inactive) | 30.1 µM (inactive) | 34.4 µM (inactive) | 60.8 µM (inactive) | 20.2 µM (inactive) | 33.8 µM (inactive) | 21.8 µM (inactive) | 3.38 µM (inactive) | 6 µM (inactive) | – | 24.5 µM (inactive) | 14.9 µM (inactive) |
| CC(C)OP(=O)(OC(C)C)/C(I)=N/Nc1ccc([N+](=O)[O-])cc1 | – | > 100 µM (inactive) | > 100 µM (inactive) | 98.4 µM (inactive) | > 100 µM (inactive) | > 100 µM (inactive) | > 100 µM (inactive) | > 100 µM (inactive) | > 100 µM (inactive) | > 100 µM (inactive) | > 100 µM (inactive) | > 100 µM (inactive) | > 100 µM (inactive) | > 100 µM (inactive) | > 100 µM (inactive) | > 100 µM (inactive) | > 100 µM (inactive) | > 100 µM (inactive) | > 100 µM (inactive) | > 100 µM (inactive) |
| COc1cc2c(cc1OC)-c1cc3ccccc3c(=O)n1CC2 | 10.3 µM (inactive) | 15.3 µM (inactive) | – | 19.9 µM (inactive) | 16.6 µM (inactive) | 27.2 µM (inactive) | 29 µM (inactive) | 13.3 µM (inactive) | – | 14.1 µM (inactive) | 26.1 µM (inactive) | 27.7 µM (inactive) | 26.1 µM (inactive) | 11.9 µM (inactive) | 13.2 µM (inactive) | 37.8 µM (inactive) | 37.5 µM (inactive) | 14.1 µM (inactive) | 10.4 µM (inactive) | 14.3 µM (inactive) |
| O=[N+]([O-])C(=C/c1ccccc1)/C(=C\c1ccccc1)[N+](=O)[O-] | 14.7 µM (inactive) | 18.7 µM (inactive) | – | 17.5 µM (inactive) | 21.6 µM (inactive) | 15.7 µM (inactive) | 20 µM (inactive) | 20 µM (inactive) | – | 1.6 µM (inactive) | 7.11 µM (inactive) | 15.9 µM (inactive) | 3.2 µM (inactive) | 18.4 µM (inactive) | 15.4 µM (inactive) | 15.2 µM (inactive) | 16.9 µM (inactive) | 21.3 µM (inactive) | 17.8 µM (inactive) | – |
| Cc1c2cnccc2c(C)c2c1c1ccccc1n2CCCCCCNCc1ccccc1 | 1.07 µM (active) | 1.82 µM (inactive) | 1.83 µM (inactive) | 1.99 µM (inactive) | 1.88 µM (inactive) | 1.89 µM (inactive) | 0.883 µM (active) | 3.8 µM (inactive) | 1.49 µM (inactive) | 1.87 µM (inactive) | 0.541 µM (active) | 2.38 µM (inactive) | 0.167 µM (active) | 2.05 µM (inactive) | 1.21 µM (inactive) | 1.43 µM (inactive) | – | 2.03 µM (inactive) | 0.649 µM (active) | – |
